Bridge positions count the residues as written; N and C are the ends. Square brackets hold non-standard residues; d marks the D form. Peptide text beside a SMILES is read from it. * marks the point of attachment. Ala(indol-2-yl) = N[C@@H](Cc1cc2ccccc2[nH]1)C(=O)O; Bip = N[C@@H](Cc1ccc(-c2ccccc2)cc1)C(=O)O; Phe(3-Me) = Cc1cccc(C[C@H](N)C(=O)O)c1; Cha = N[C@@H](CC1CCCCC1)C(=O)O; dCha = N[C@H](CC1CCCCC1)C(=O)O; dNle = CCCC[C@@H](N)C(=O)O; Carboxymethyl = O=C(O)C*; Orn = NCCC[C@H](N)C(=O)O; Aun = NCCCCCCCCCCC(=O)O; Dab = NCC[C@H](N)C(=O)O; Dap = NC[C@H](N)C(=O)O; AEEA = NCCOCCOCC(=O)O
Target: T1, PD-1/PD-L1 interaction (PE-labeled human PD-L1-Ig binding to Jurkat cell line over-expressing human PD-1) (Homo sapiens, UniProt Q15116)
T1 construct: expressed in transfected cells; host or cells: Jurkat
T1 sequence (Q15116 25-288): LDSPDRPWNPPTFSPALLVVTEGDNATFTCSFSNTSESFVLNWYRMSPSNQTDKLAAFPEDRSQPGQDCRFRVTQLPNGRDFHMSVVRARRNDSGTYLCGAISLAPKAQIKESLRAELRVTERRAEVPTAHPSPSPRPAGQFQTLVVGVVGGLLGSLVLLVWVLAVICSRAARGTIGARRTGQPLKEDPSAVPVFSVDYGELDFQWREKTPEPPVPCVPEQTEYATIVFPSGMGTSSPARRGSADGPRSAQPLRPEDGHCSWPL
Experiment: Jurkat-PD-1 Cell Binding High-Content Screening Assay (CBA)
Assay type: cell-based
Settings: Jurkat cell line over-expressing human PD-1; PE-labeled PD-L1-Ig 20 nM final; read-out: Jurkat hPD1-PDL1 IC50
Procedure, shortened: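 Human PD-L1-Ig carrying a covalent PE label on its Ig tag serves as the probe, applied at 20 nM final to compound-treated (2 h, 37° C) Jurkat-hPD-1 cells in medium with 10% fetal calf serum. After one hour, fixation and nuclear staining precede high-content image analysis.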

Work on `CCCC[C@H]1NC(=O)[C@H](CCCN)NC(=O)[C@H](C(C)C)NC(=O)[C@H](Cc2ccc(-c3ccccc3)cc2)NC(=O)[C@H](C(C)C)NC(=O)[C@H](Cc2cc3ccccc3[nH]2)NC(=O)[C@H](CC(=O)O)NC(=O)[C@H](Cc2ccc(OCC(=O)O)cc2)NC(=O)[C@H](CN)NC(=O)CSC[C@@H](C(=O)N[C@@H](CCN)C(=O)NCCOCCOCC(=O)NCCCCCCCCCCC(=O)O)NC(=O)[C@H](CCCCN)NC(=O)[C@H](C(C)C)NC(=O)[C@H](CC2CCCCC2)NC(=O)[C@H](CCN)NC1=O` [Compound 2678] ({CH2CO}-[Dap]Y(Carboxymethyl)D[Ala(indol-2-yl)]V[Bip]V[Orn][dNle][Dab][Cha]VKC[Dab][AEEA][Aun]-OH; thioether N-14) yielded an IC50 of 15.2 nM.
For `CC(C)[C@@H]1NC(=O)[C@H](CC2CCCCC2)NC(=O)[C@H](CCN)NC(=O)[C@@H](CC2CCCCC2)NC(=O)[C@H](CCCN)NC(=O)[C@H](C(C)C)NC(=O)[C@H](Cc2ccc(-c3ccccc3)cc2)NC(=O)[C@H](C(C)C)NC(=O)[C@H](Cc2c[nH]c3ccccc23)NC(=O)[C@H](CC(=O)O)NC(=O)[C@H](Cc2ccc(OCC(=O)O)cc2)NC(=O)[C@H](CN)NC(=O)CSC[C@@H](C(=O)N[C@@H](CCN)C(=O)NCCOCCOCC(=O)NCCCCCCCCCCC(=O)O)NC(=O)[C@H](CCCCN)NC1=O` [Compound 2679] ({CH2CO}-[Dap]Y(Carboxymethyl)DWV[Bip]V[Orn][dCha][Dab][Cha]VKC[Dab][AEEA][Aun]-OH; thioether N-14), the IC50 was 26.9 nM.
With `CCCC[C@H]1NC(=O)[C@H](CCCN)NC(=O)[C@H](C(C)C)NC(=O)[C@H](Cc2ccc(-c3ccccc3)cc2)NC(=O)[C@H](C(C)C)NC(=O)[C@H](Cc2cccc(C)c2)NC(=O)[C@H](CC(=O)O)NC(=O)[C@H](Cc2ccc(OCC(=O)O)cc2)NC(=O)[C@H](CN)NC(=O)CSC[C@@H](C(=O)N[C@@H](CCN)C(=O)NCCOCCOCC(=O)NCCCCCCCCCCC(=O)O)NC(=O)[C@H](CN)NC(=O)[C@H](C(C)C)NC(=O)[C@H](CC2CCCCC2)NC(=O)[C@H](CCN)NC1=O` [Compound 2680] ({CH2CO}-[Dap]Y(Carboxymethyl)D[Phe(3-Me)]V[Bip]V[Orn][dNle][Dab][Cha]V[Dap]C[Dab][AEEA][Aun]-OH; thioether N-14) the IC50 was 13.2 nM.
`Cc1cccc(C[C@@H]2NC(=O)[C@H](CC(=O)O)NC(=O)[C@H](Cc3ccc(OCC(=O)O)cc3)NC(=O)[C@H](CN)NC(=O)CSC[C@@H](C(=O)N[C@@H](CCN)C(=O)NCCOCCOCC(=O)NCCCCCCCCCCC(=O)O)NC(=O)[C@H](CN)NC(=O)[C@H](C(C)C)NC(=O)[C@H](CC3CCCCC3)NC(=O)[C@H](CCN)NC(=O)[C@@H](CC3CCCCC3)NC(=O)[C@H](CCCN)NC(=O)[C@H](C(C)C)NC(=O)[C@H](Cc3ccc(-c4ccccc4)cc3)NC(=O)[C@H](C(C)C)NC2=O)c1` [Compound 2681] ({CH2CO}-[Dap]Y(Carboxymethyl)D[Phe(3-Me)]V[Bip]V[Orn][dCha][Dab][Cha]V[Dap]C[Dab][AEEA][Aun]-OH; thioether N-14) gave an IC50 of 13 nM.
`CCCC[C@H]1NC(=O)[C@H](CCCN)NC(=O)[C@H](C(C)C)NC(=O)[C@H](Cc2ccc(-c3ccccc3)cc2)NC(=O)[C@H](C(C)C)NC(=O)[C@H](Cc2cccc(C)c2)NC(=O)[C@H](CC(=O)O)NC(=O)[C@H](Cc2ccc(OCC(=O)O)cc2)NC(=O)[C@H](CN)NC(=O)CSC[C@@H](C(=O)N[C@@H](CCN)C(=O)NCCOCCOCC(=O)NCCCCCCCCCCC(=O)O)NC(=O)[C@H](CCCNC(=N)N)NC(=O)[C@H](C(C)C)NC(=O)[C@H](CC2CCCCC2)NC(=O)[C@H](CCN)NC1=O` [Compound 2682] ({CH2CO}-[Dap]Y(Carboxymethyl)D[Phe(3-Me)]V[Bip]V[Orn][dNle][Dab][Cha]VRC[Dab][AEEA][Aun]-OH; thioether N-14) was tested, and the IC50 was 17.4 nM.
With `Cc1cccc(C[C@@H]2NC(=O)[C@H](CC(=O)O)NC(=O)[C@H](Cc3ccc(OCC(=O)O)cc3)NC(=O)[C@H](CN)NC(=O)CSC[C@@H](C(=O)N[C@@H](CCN)C(=O)NCCOCCOCC(=O)NCCCCCCCCCCC(=O)O)NC(=O)[C@H](CCCNC(=N)N)NC(=O)[C@H](C(C)C)NC(=O)[C@H](CC3CCCCC3)NC(=O)[C@H](CCN)NC(=O)[C@@H](CC3CCCCC3)NC(=O)[C@H](CCCN)NC(=O)[C@H](C(C)C)NC(=O)[C@H](Cc3ccc(-c4ccccc4)cc3)NC(=O)[C@H](C(C)C)NC2=O)c1` [Compound 2683] ({CH2CO}-[Dap]Y(Carboxymethyl)D[Phe(3-Me)]V[Bip]V[Orn][dCha][Dab][Cha]VRC[Dab][AEEA][Aun]-OH; thioether N-14) the IC50 was 14.9 nM.
Work on `Cc1cccc(C[C@@H]2NC(=O)[C@H](CC(=O)O)NC(=O)[C@H](Cc3ccc(OCC(=O)O)cc3)NC(=O)[C@H](CN)NC(=O)CSC[C@@H](C(=O)N[C@@H](CCN)C(=O)NCCOCCOCC(=O)NCCCCCCCCCCC(=O)O)NC(=O)[C@H](CN)NC(=O)[C@H](C(C)C)NC(=O)[C@H](CC3CCCCC3)NC(=O)[C@H](CCN)NC(=O)[C@@H](CC3CCCCC3)NC(=O)[C@H](CCCN)NC(=O)[C@H](C(C)C)NC(=O)[C@H](Cc3ccc(-c4ccccc4)cc3)NC(=O)[C@H](C(C)C)NC2=O)c1` [Compound 2684] ({CH2CO}-[Dap]Y(Carboxymethyl)D[Phe(3-Me)]V[Bip]V[Orn][dCha][Dab][Cha]V[Dap]C[Dab][AEEA][Aun]-OH; thioether N-14) yielded an IC50 of 36.3 nM.
`CCCC[C@H]1NC(=O)[C@H](CCCN)NC(=O)[C@H](C(C)C)NC(=O)[C@H](Cc2ccc(-c3ccccc3)cc2)NC(=O)[C@H](C(C)C)NC(=O)[C@H](Cc2cccc(C)c2)NC(=O)[C@H](CC(=O)O)NC(=O)[C@H](Cc2ccc(OCC(=O)O)cc2)NC(=O)[C@H](CN)NC(=O)CSC[C@@H](C(=O)N[C@@H](CCCCN)C(=O)NCCCCCCCCCCC(=O)O)NC(=O)[C@H](CN)NC(=O)[C@H](C(C)C)NC(=O)[C@H](CC2CCCCC2)NC(=O)[C@H](CCN)NC1=O` [Compound 2685] ({CH2CO}-[Dap]Y(Carboxymethyl)D[Phe(3-Me)]V[Bip]V[Orn][dNle][Dab][Cha]V[Dap]CK[Aun]-OH; thioether N-14) was tested, and the IC50 was 11.6 nM.
For `Cc1cccc(C[C@@H]2NC(=O)[C@H](CC(=O)O)NC(=O)[C@H](Cc3ccc(OCC(=O)O)cc3)NC(=O)[C@H](CN)NC(=O)CSC[C@@H](C(=O)N[C@@H](CCCCN)C(=O)NCCCCCCCCCCC(=O)O)NC(=O)[C@H](CN)NC(=O)[C@H](C(C)C)NC(=O)[C@H](CC3CCCCC3)NC(=O)[C@H](CCN)NC(=O)[C@@H](CC3CCCCC3)NC(=O)[C@H](CCCN)NC(=O)[C@H](C(C)C)NC(=O)[C@H](Cc3ccc(-c4ccccc4)cc3)NC(=O)[C@H](C(C)C)NC2=O)c1` [Compound 2686] ({CH2CO}-[Dap]Y(Carboxymethyl)D[Phe(3-Me)]V[Bip]V[Orn][dCha][Dab][Cha]V[Dap]CK[Aun]-OH; thioether N-14), the IC50 was 16.1 nM.
In the case of `CCCC[C@H]1NC(=O)[C@H](CCCN)NC(=O)[C@H](C(C)C)NC(=O)[C@H](Cc2ccc(-c3ccccc3)cc2)NC(=O)[C@H](C(C)C)NC(=O)[C@H](Cc2cccc(C)c2)NC(=O)[C@H](CC(=O)O)NC(=O)[C@H](Cc2ccc(OCC(=O)O)cc2)NC(=O)[C@H](CN)NC(=O)CSC[C@@H](C(=O)N[C@@H](CCCCN)C(=O)NCCCCCCCCCCC(=O)O)NC(=O)[C@H](CCCN)NC(=O)[C@H](C(C)C)NC(=O)[C@H](CC2CCCCC2)NC(=O)[C@H](CCN)NC1=O` [Compound 2687] ({CH2CO}-[Dap]Y(Carboxymethyl)D[Phe(3-Me)]V[Bip]V[Orn][dNle][Dab][Cha]V[Orn]CK[Aun]-OH; thioether N-14), the IC50 is reported as 10 nM.
Work on `Cc1cccc(C[C@@H]2NC(=O)[C@H](CC(=O)O)NC(=O)[C@H](Cc3ccc(OCC(=O)O)cc3)NC(=O)[C@H](CN)NC(=O)CSC[C@@H](C(=O)N[C@@H](CCCCN)C(=O)NCCCCCCCCCCC(=O)O)NC(=O)[C@H](CCCN)NC(=O)[C@H](C(C)C)NC(=O)[C@H](CC3CCCCC3)NC(=O)[C@H](CCN)NC(=O)[C@@H](CC3CCCCC3)NC(=O)[C@H](CCCN)NC(=O)[C@H](C(C)C)NC(=O)[C@H](Cc3ccc(-c4ccccc4)cc3)NC(=O)[C@H](C(C)C)NC2=O)c1` [Compound 2688] ({CH2CO}-[Dap]Y(Carboxymethyl)D[Phe(3-Me)]V[Bip]V[Orn][dCha][Dab][Cha]V[Orn]CK[Aun]-OH; thioether N-14) yielded an IC50 of 15.6 nM.
For `Cc1cccc(C[C@@H]2NC(=O)[C@H](CC(=O)O)NC(=O)[C@H](Cc3ccc(OCC(=O)O)cc3)NC(=O)[C@H](CN)NC(=O)CSC[C@@H](C(=O)NCCOCCOCC(=O)NCCCCCCCCCCC(=O)O)NC(=O)[C@H](CCCN)NC(=O)[C@H](C(C)C)NC(=O)[C@H](CC3CCCCC3)NC(=O)[C@H](CCN)NC(=O)[C@@H](CC(C)C)NC(=O)[C@H](CCCN)NC(=O)[C@H](Cc3ccc(O)cc3)NC(=O)[C@H](Cc3ccc(-c4ccccc4)cc3)NC(=O)[C@H](Cc3ccc(O)cc3)NC2=O)c1` [Compound 2691] ({CH2CO}-[Dap]Y(Carboxymethyl)D[Phe(3-Me)]Y[Bip]Y[Orn][dL][Dab][Cha]V[Orn]C[AEEA][Aun]-OH; thioether N-14), the IC50 was 15 nM.
With `Cc1cccc(C[C@@H]2NC(=O)[C@H](CC(=O)O)NC(=O)[C@H](Cc3ccc(OCC(=O)O)cc3)NC(=O)[C@H](CN)NC(=O)CSC[C@@H](C(=O)NCCOCCOCC(=O)NCCCCCCCCCCC(=O)O)NC(=O)[C@H](CCCN)NC(=O)[C@H](C(C)C)NC(=O)[C@H](CC3CCCCC3)NC(=O)[C@H](CCN)NC(=O)[C@@H](CC(C)C)NC(=O)[C@H](CCCN)NC(=O)[C@H](Cc3ccc(O)cc3)NC(=O)[C@H](Cc3ccc(-c4ccccc4)cc3)NC(=O)[C@H](C(C)C)NC2=O)c1` [Compound 2692] ({CH2CO}-[Dap]Y(Carboxymethyl)D[Phe(3-Me)]V[Bip]Y[Orn][dL][Dab][Cha]V[Orn]C[AEEA][Aun]-OH; thioether N-14) the IC50 was 6.3 nM.

Source: US20260022142A1, “MACROCYCLIC IMMUNOMODULATORS” (Bristol-Myers Squibb Company, priority 2022, published 2026)
